Data set [1] relates to bicistronic HCV replicon (replicon RNA, GenBank Accession No. AJ242654). The experiment in a line: HCV Replicon Assay. The settings on record: Hepatitis C virus, 72 h, read-out: Replicon IC50. It is filed as cell-based.

By IC50 is commonly meant the midpoint of a concentration-inhibition curve. By melting point is commonly meant the temperature, or range, at which the solid turns liquid.

Molecule `Cc1cc2c(cc1Cl)c(C#N)c(-c1ccc(S(=O)(=O)N[C@@H](C)C(F)(F)F)cn1)n2-c1ccc(F)cn1` [compound 804, 6-[5-chloro-3-cyano-1-(5-fluoropyridin-2-yl)-6-methyl-1H-indol-2-yl]-N-[(2S)-1,1,1-trifluoropropan-2-yl]pyridine-3-sulfonamide] gave a melting point of 210 to 212 °C. Besides, in data set [1], the IC50 was below 500 nM.

In turn, `Cc1cc2c(cc1F)c(C#N)c(-c1ccc(S(=O)(=O)NC(CF)CF)cn1)n2C1CCC1` [compound 108, 6-(3-cyano-1-cyclobutyl-5-fluoro-6-methyl-1H-indol-2-yl)-N-(1,3-difluoropropan-2-yl)pyridine-3-sulfonamide] came in with a melting point of 186 to 188 °C. Further, in data set [1], the IC50 is below 500 nM.

Regarding `COc1ccc(-n2c(-c3ncc(S(=O)(=O)NC(CF)CF)cn3)c(C#N)c3cc(F)ccc32)cc1` [compound 337, 2-[3-cyano-5-fluoro-1-(4-methoxyphenyl)-1H-indol-2-yl]-N-(1,3-difluoropropan-2-yl)pyrimidine-5-sulfonamide], the melting point is 209 to 211 °C. Also, the IC50 in data set [1] lay in the range of 500 to 2000 nM.

Take `C[C@H](NS(=O)(=O)c1ccc(-c2c(C#N)c3ccc(Cl)cc3n2-c2ccccn2)nc1)C(F)(F)F` [compound 437, 6-[6-chloro-3-cyano-1-(pyridin-2-yl)-1H-indol-2-yl]-N-[(2S)-1,1,1-trifluoropropan-2-yl]pyridine-3-sulfonamide]: the melting point was 177 to 178 °C. For the same molecule, the IC50 in data set [1] is below 500 nM.

In the case of `Cc1cc2c(cc1F)c(C#N)c(-c1ccc(S(=O)(=O)N[C@@H](C)C(F)(F)F)cn1)n2-c1cnccn1` [compound 817, 6-[3-cyano-5-fluoro-6-methyl-1-(pyrazin-2-yl)-1H-indol-2-yl]-N-[(2S)-1,1,1-trifluoropropan-2-yl]pyridine-3-sulfonamide], the melting point was 220 to 223 °C. For the same molecule, the IC50 in data set [1] was below 500 nM.

`C[C@H](NS(=O)(=O)c1ccc(-c2c(C#N)c3ccc(F)cc3n2C2CCCC2)nc1)C(F)(F)F` [compound 396, 6-(3-cyano-1-cyclopentyl-6-fluoro-1H-indol-2-yl)-N-[(2S)-1,1,1-trifluoropropan-2-yl]pyridine-3-sulfonamide] had a melting point of 132 to 133 °C. In addition, in data set [1], the IC50 is below 500 nM.

As to `CCCS(=O)(=O)Nc1ccc(-c2c(C#N)c3ccc(Oc4nccnc4C#N)cc3n2C2CCC2)nc1` [compound 273, N-(6-{3-cyano-6-[(3-cyanopyrazin-2-yl)oxy]-1-cyclobutyl-1H-indol-2-yl}pyridin-3-yl)propane-1-sulfonamide], the melting point lay in the range of 252 to 254 °C. In data set [1], the IC50 is below 500 nM.

`CCn1c(-c2ncc(S(=O)(=O)NC(C)C)cn2)c(C#N)c2cc(OC(F)F)ccc21` [compound 242, 2-[3-cyano-5-(difluoromethoxy)-1-ethyl-1H-indol-2-yl]-N-(propan-2-yl)pyrimidine-5-sulfonamide] yielded a melting point of 180 to 185 °C. In addition, the concentration for half-maximal inhibition (IC50) in data set [1] lay in the range of 500 to 2000 nM.

`N#Cc1c(-c2ncc(S(=O)(=O)NC(CF)CF)cn2)n(C2CCCCC2)c2cc(Cl)ccc12` [compound 517, 2-(6-chloro-3-cyano-1-cyclohexyl-1H-indol-2-yl)-N-(1,3-difluoropropan-2-yl)pyrimidine-5-sulfonamide] gave a melting point of 228 to 234 °C. Besides, in data set [1], the IC50 was below 500 nM.

Molecule `N#Cc1c(-c2ncc(S(=O)(=O)NC(CF)CF)cn2)n(C2CCC2)c2cc(C3CC3)ccc12` [compound 126, 2-(3-cyano-1-cyclobutyl-6-cyclopropyl-1H-indol-2-yl)-N-(1,3-difluoropropan-2-yl)pyrimidine-5-sulfonamide] came in with a melting point of 165 to 168 °C. Moreover, the IC50 in data set [1] was below 500 nM.

For `CC(C)NS(=O)(=O)c1ccc(-c2c(C#N)c3ccc(OC(F)F)cc3n2C2CC2)cn1` [compound 39, 5-[3-cyano-1-cyclopropyl-6-(difluoromethoxy)-1H-indol-2-yl]-N-(propan-2-yl)pyridine-2-sulfonamide], the melting point is 209 to 210 °C. Moreover, the IC50 in data set [1] was in the range of 2000 to 5000 nM.

Turning to `Cc1ccc2c(C#N)c(-c3ccc(S(=O)(=O)N[C@H](C)C(F)(F)F)cn3)n(C3CCCCC3)c2c1` [compound 213, 6-(3-cyano-1-cyclohexyl-6-methyl-1H-indol-2-yl)-N-[(2R)-1,1,1-trifluoropropan-2-yl]pyridine-3-sulfonamide], the melting point was 208 to 212 °C. The IC50 in data set [1] is below 500 nM.

`Cc1cc2c(cc1Cl)c(C(N)=O)c(-c1ncc(S(=O)(=O)N[C@@H](C)C(F)(F)F)cn1)n2C1CCC1` [compound 733, 5-chloro-1-cyclobutyl-6-methyl-2-(5-{[(2S)-1,1,1-trifluoropropan-2-yl]sulfamoyl}pyrimidin-2-yl)-1H-indole-3-carboxamide]: the melting point was 171 to 173 °C. For the same molecule, the IC50 in data set [1] was below 500 nM.

Regarding `C[C@H](NS(=O)(=O)c1ccc(-c2c(C(N)=O)c3cc(F)c(OC(F)F)cc3n2C2CCCC2)nc1)C(F)(F)F` [compound 806, 1-cyclopentyl-6-(difluoromethoxy)-5-fluoro-2-(5-{[(2S)-1,1,1-trifluoropropan-2-yl]sulfamoyl}pyridin-2-yl)-1H-indole-3-carboxamide], the melting point was 220 to 222 °C. Further, the IC50 in data set [1] was below 500 nM.

`Cc1cc2c(cc1F)c(C#N)c(-c1ccc(S(=O)(=O)N[C@@H](C)C(F)(F)F)cn1)n2-c1ncc(Cl)cn1` [compound 914, 6-[1-(5-chloropyrimidin-2-yl)-3-cyano-5-fluoro-6-methyl-1H-indol-2-yl]-N-[(2S)-1,1,1-trifluoropropan-2-yl]pyridine-3-sulfonamide]: the melting point lay in the range of 213 to 218 °C. For the same molecule, the IC50 in data set [1] is below 500 nM.

The molecule `CCc1cc2c(cc1F)c(C#N)c(-c1ccc(S(=O)(=O)N[C@@H](C)C(F)(F)F)cn1)n2-c1ccc(F)c(Cl)c1` [compound 1062, 6-[1-(3-chloro-4-fluorophenyl)-3-cyano-6-ethyl-5-fluoro-1H-indol-2-yl]-N-[(2S)-1,1,1-trifluoropropan-2-yl]pyridine-3-sulfonamide] registered a melting point of 228 to 232 °C. Also, the IC50 in data set [1] was below 500 nM.

On to `Cc1nc(NS(=O)(=O)C(C)(C)C)ccc1-c1c(C(N)=O)c2cc(F)c(OC(F)F)cc2n1[C@@H](C)C1CC1` [compound 1096, 2-{6-[(tert-butylsulfonyl)amino]-2-methylpyridin-3-yl}-1-[(1S)-1-cyclopropylethyl]-6-(difluoromethoxy)-5-fluoro-1H-indole-3-carboxamide], for which the melting point fell in the range of 147 to 151 °C. The half-inhibitory concentration (IC50) in data set [1] is below 500 nM.

On to `CC(C)(C)NS(=O)(=O)c1ccc(-c2c(C#N)c3cc(OC(F)F)ccc3n2C2CCC2)nc1` [compound 20, N-tert-butyl-6-[3-cyano-1-cyclobutyl-5-(difluoromethoxy)-1H-indol-2-yl]pyridine-3-sulfonamide], for which the melting point fell in the range of 167 to 170 °C. The IC50 in data set [1] lay within 500 to 2000 nM.

Regarding `Cc1cc2c(cc1O)c(C(N)=O)c(-c1ccc(S(=O)(=O)NC(C)(C)C)cn1)n2C1CCC1` [compound 828, 2-[5-(tert-butylsulfamoyl)pyridin-2-yl]-1-cyclobutyl-5-hydroxy-6-methyl-1H-indole-3-carboxamide], the melting point was in the range of 292 to 293 °C. Besides, in data set [1], the IC50 was 2000 to 5000 nM.

On to `Cc1ccc2c(c1)c(C#N)c(-c1ncc(S(=O)(=O)N[C@@H](C)C3CC3)cn1)n2C1CCC1` [compound 545, 2-(3-cyano-1-cyclobutyl-5-methyl-1H-indol-2-yl)-N-[(1S)-1-cyclopropylethyl]pyrimidine-5-sulfonamide], for which the melting point lay in the range of 168 to 171 °C. The IC50 in data set [1] is below 500 nM.

Regarding `Cc1cc2c(cc1F)c(C#N)c(-c1ccc(S(=O)(=O)N[C@@H](C)C(F)(F)F)cn1)n2-c1ccoc1` [compound 991, 6-[3-cyano-5-fluoro-1-(furan-3-yl)-6-methyl-1H-indol-2-yl]-N-[(2S)-1,1,1-trifluoropropan-2-yl]pyridine-3-sulfonamide], the melting point is 215 to 219 °C. Further, the IC50 in data set [1] is below 500 nM.

For the molecule `CC(C)(NS(=O)(=O)c1ccc(-c2c(C#N)c3ccc(CC(F)F)cc3n2C2CCCC2)nc1)C(F)(F)F` [compound 596, 6-[3-cyano-1-cyclopentyl-6-(2,2-difluoroethyl)-1H-indol-2-yl]-N-(1,1,1-trifluoro-2-methylpropan-2-yl)pyridine-3-sulfonamide], the melting point fell in the range of 194 to 199 °C. In data set [1], the IC50 was below 500 nM.

Take `Cc1ccc2c(c1)c(C#N)c(-c1ccc(S(=O)(=O)N[C@@H](C)C3CC3)cn1)n2CC1CC1` [compound 525, 6-[3-cyano-1-(cyclopropylmethyl)-5-methyl-1H-indol-2-yl]-N-[(1S)-1-cyclopropylethyl]pyridine-3-sulfonamide]: the melting point lay within 181 to 185 °C. Moreover, in data set [1], the IC50 was 500 to 2000 nM.

The molecule `Cc1ccc2c(C#N)c(-c3ccc(S(=O)(=O)NC4(C(F)(F)F)CC4)cn3)n(C3CCCC3)c2c1` [compound 190, 6-(3-cyano-1-cyclopentyl-6-methyl-1H-indol-2-yl)-N-[1-(trifluoromethyl)cyclopropyl]pyridine-3-sulfonamide] returned a melting point of 199 to 210 °C. In addition, the IC50 in data set [1] is below 500 nM.

`C[C@@H](NS(=O)(=O)c1ccc(-c2c(C#N)c3cc(F)ccc3n2C2CCCC2)nc1)C(F)(F)F` [compound 220, 6-(3-cyano-1-cyclopentyl-5-fluoro-1H-indol-2-yl)-N-[(2R)-1,1,1-trifluoropropan-2-yl]pyridine-3-sulfonamide] returned a melting point of 158 to 160 °C. Further, the IC50 in data set [1] is below 500 nM.

Molecule `CC(C)NS(=O)(=O)c1cnc(-c2c(C#N)c3ccc(F)cc3n2C2CCC2)nc1` [compound 138, 2-(3-cyano-1-cyclobutyl-6-fluoro-1H-indol-2-yl)-N-(propan-2-yl)pyrimidine-5-sulfonamide] yielded a melting point of 193 to 195 °C. Moreover, the IC50 in data set [1] fell in the range of 500 to 2000 nM.

For the origin of these results see patent publication US8735414B2 (priority 2009, dated 2014).
